The source of these data is patent US5478946A, “Guanidino compounds as regulators of nitric oxide synthase” (Abbott Laboratories, priority 1993, dated 1995).

pIC50: −log10 of the molar value.

The target in test [1] is T1, Type II NOS (RAW macrophage cell cytosol) (Mus musculus, UniProt P29477).
T1 construct: cytosolic preparations from RAW 264.7 cells; endogenous in cells; host or cells: RAW 264.7 cells, LPS-induced for 16 hours
As to the kind of experiment: [3H]-Arginine to [3H]-Citrulline conversion, RAW cell cytosol (Type II NOS). The following applies: for inhibition at 100 µM / pIC50: LPS induced; for pIC50: read-out: Inhibition of [3H]-Citrulline Formation IC50, RAW Cell cytosol. The format is biochemical, murine. The text has this: (§1) The enzyme NO synthase produces EDRF/NO and citrulline from L-arginine (Bredt and Snyder, Proc. Nat'l. Acad. Sci. USA, 1989, 87: 682-5). The enzymatic generation of EDRF/NO is monitored by measuring the conversion of [^3 H]-L-arginine to [^3 H]-L-citrulline. An inhibitor of this specific enzymatic reaction lowers the conversion rate and, thus, the amount of [^3 H]-L-citrulline produced. Likewise, a compound acting as a substrate would compete with L-arginine and thereby lower the conversion rate.
(§2) The conversion of L-arginine to L-citrulline was assayed as reported previously (Bredt and Snyder, Proc. Nat'l Acad Sci USA, 1989, 87: 682-5) with minor modifications. Briefly, samples of partially purified NO synthase, 50-100 μg of protein or 20 μL of cytosol (alternatively cytosolic preparations from RAW 264.7 cells, a murine monocyte-macrophage cell line, induced for 16 hours with 10 μg/mL medium of Lipopolysaccharide (LPS), or partially purified (phosphocellulose column) type I isozyme from rat brain cerebellum, or partially purified isozyme III from bovine aortic endothelial cells (BAE cells)) were incubated for 20 minutes (3 minutes in the cases of purified enzyme preparations) at 25° C. in the presence of 10 μM L-[2,3-^3 H]arginine (55 Ci /mmol) (containing 34 nM (0.2 μCi)), 1 mM NADPH, and 2 Mm CaCl2 in a final volume of 100 μL. The reaction was stopped by adding 1 mL of stop buffer (2 mM EGTA, 2 mM EDTA 20 mM Hepes, pH 5.5). The total volume was then applied to a 1 mL Dowex AG 50 WX-8 column (Na^+ form, Bio-Rad) that had been pre-equilibrated with the stop buffer. L-[2,3-^3 H]Citrulline was eluted (2×) with 0.5 mL of stop buffer and radioactivity was determined by liquid scintillation counting.
(§3) The following Tables present data on the inhibition of [^3 H]-citrulline formation from [^3 H]-L-arginine by the compounds of the invention in various preparations representative of the isoforms of NOS, Types I, II, and III NOS as represented by rat brain cytosol, […] macrophage cell cytosol, and BAE homogenate preparation respectively.

In test [2] the target is T2, Type I NOS (rat brain cytosol) (Rattus norvegicus, UniProt P29476).
T2 construct: type I isozyme from rat brain cerebellum; from tissue; host or cells: rat brain (cytosol; cerebellum, phosphocellulose-purified)
The test can be described thus: [3H]-Arginine to [3H]-Citrulline conversion, rat brain cytosol (Type I NOS). The format is biochemical. The following applies: for pIC50: read-out: Inhibition of [3H]-Citrulline Formation IC50, Rat Brain Cytosol.
Description: as §1, §2, §3

In test [3] the target is T3, Type III NOS (BAE homogenate preparation) (Bos taurus, UniProt P29473).
T3 construct: partially purified isozyme III from bovine aortic endothelial cells (BAE cells); endogenous in cells; host or cells: bovine aortic endothelial (BAE) cells
As to the kind of experiment: [3H]-Arginine to [3H]-Citrulline conversion, BAE homogenate preparation (Type III NOS). The format is biochemical, bovine. The following applies: for pIC50: read-out: Inhibition of [3H]-Citrulline Formation IC50, BAE Preparation.
Description: as §1, §2, §3

The mark [4] stands for this setting: read-out: Percent Inhibition of [3H]-Citrulline Formation, RAW Cell Cytosol.
Where [5] appears, read: read-out: Percent Inhibition of [3H]-Citrulline Formation, Rat Brain Cytosol.
Where [6] appears, read: read-out: Percent Inhibition of [3H]-Citrulline Formation, BAE Preparation.

Take `CC(C)(C)OC(=O)N1[C@@H](/C=C/CNC(=N)N[N+](=O)[O-])COC1(C)C` [Example 1, 3-(1,1 -Dimethylethyl)-(S)-4-(3-N^G -nitroguanidinopropen-1, E-yl)-2,2-dimethyl-3-oxazolidinecarboxvlate]: the values for the inhibition at 100 µM in test [1] (setting [4]) and in test [2] (setting [5]) were 0% and 6%, respectively. The pIC50 in test [1], in test [2] and in test [3] was under 4.00 throughout.
Take `N=C(NC/C=C/[C@H](N)CO)N[N+](=O)[O-]` [Example 2, N^G -Nitroguanidinyl-4(S)-amino-pent-2,E-ene-5-ol]: the values for the inhibition at 100 µM in test [1] (setting [4]) and in test [2] (setting [5]) were 14% and 80%, respectively. Moreover, the pIC50 in test [1] is under 4.00; in test [2], 4.40; in test [3] it was 4.10.
As to `CC(C)(C)OC(=O)N1[C@@H](/C=C/CNC(=N)N)COC1(C)C` [Example 3, 3-(1,1-Dimethylethyl)-(S)-4-(3-guanidinopropen-1,E-yl)-2,2-dimethyl-3-oxazolidinecarboxylate], the inhibition at 100 µM in test [1] (setting [4]) worked out at 68%; in test [2] (setting [5]) it was 35%. Besides, the pIC50 in test [1] is 4.40; in test [2] it was under 4.00; in test [3], under 4.00.
As to `N=C(N)NC/C=C/[C@H](N)CO` [Example 4, 1-Guanidirlyl-4(S)-amino-pent-2,E-ene-5-ol], the inhibition at 100 µM in test [1] (setting [4]) worked out at 50%; in test [3] (setting [6]), 22%. For the same compound, the results for the pIC50 in test [1] and in test [3] were 4.00 and under 4.00, respectively.
For `N=C(NN)NC/C=C/[C@H](N)CO` [Example 6, N^G -Aminoguanidinyl-4(S)-amino-pent-2,E-ene-5-ol], the figures for the pIC50 in test [1], in test [2] and in test [3] were 4.66, under 4.52 and under 4.52, respectively. The inhibition at 10 µM in test [1] (tested at 10 μM, read-out: Percent Inhibition of [3H]-Citrulline Formation, RAW Cell Cytosol) came out at 46%. Further, the inhibition at 30 µM in test [2] (tested at 30 μM, read-out: Percent Inhibition of [3H]-Citrulline Formation, Rat Brain Cytosol) was 0%; in test [3] (tested at 30 μM, read-out: Percent Inhibition of [3H]-Citrulline Formation, BAE Preparation), 0%.
With `CC(C)(C)OC(=O)N1[C@@H](/C=C/CNC(=N)NO)COC1(C)C` [Example 7, 3-(1,1-Dimethylethyl)-(S)-4-(3-N^G -hydroxyguanidinopropen-1,E-yl)-2.2-dimethyl-3-oxazolidinecarboxylate], in test [1] (setting [4]), the inhibition at 100 µM stood at 17%. Also, the pIC50 in test [1] is under 4.00.
As to `N=C(NO)NC/C=C/[C@H](N)CO` [Example 8, N^G -Hydroxyguanidinyl-4(S)-amino-pent-2,E-ene-5-ol], the results for the inhibition at 100 µM in test [1] (setting [4]) and in test [2] (setting [5]) were 13% and 23%, respectively. Also, the pIC50 in test [1] and in test [2] was under 4.00 each time.
Turning to `CNC(=N)NC/C=C/[C@H]1COC(C)(C)N1C(=O)OC(C)(C)C` [Example 9, 3-(1,1-Dimethylethyl)-(S)-4-(3-N^G -methylguanidinoorooen-1,E-yl)-2.2-dimethyl-3-oxazolidinecarboxylate], the figures for the inhibition at 100 µM in test [1] (setting [4]) and in test [2] (setting [5]) were 47% and 51%, respectively. For the same compound, the pIC50 in test [1] is 4.00; in test [2] it was 4.10.
On to `CNC(=N)NC/C=C/[C@H](N)CO` [Example 10, N^G -Methylguanidinyl-4(S)-Amino-pent-2 ,E-ene-5-ol], for which the inhibition at 100 µM in test [1] (setting [4]) amounted to 43%; in test [2] (setting [5]), 74%; in test [3] (setting [6]) it was 40%. Besides, the pIC50 in test [1] was under 4.00; in test [2], 4.52; in test [3], under 4.00.
For `CCNC(=N)NC/C=C/[C@H]1COC(C)(C)N1C(=O)OC(C)(C)C` [Example 11, 3-(1,1-Dimethylethyl)-(S)-4-(3-N^G -ethylguanidinopropen-1,E-yl)-2,2-dimethyl-3-oxazolidinecarboxylate], the inhibition at 100 µM in test [1] (setting [4]) turned out to be 41%; in test [2] (setting [5]) it was 20%. Also, the pIC50 in test [1] and in test [2] was under 4.00 each time.
On to `CCNC(=N)NC/C=C/[C@H](N)CO` [Example 12, N^G Ethylguanidinyl-4(S)-Amino-pent-2,E-ene-5-ol], for which the figures for the inhibition at 100 µM in test [1] (setting [4]), in test [2] (setting [5]) and in test [3] (setting [6]) were 8%, 70% and 5%, respectively. In addition, the pIC50 in test [1] was under 4.00; in test [2], 4.52; in test [3], under 4.00.
Turning to `C/C(=C\[C@H]1COC(C)(C)N1C(=O)OC(C)(C)C)CNC(=N)N[N+](=O)[O-]` [Example 14, 3-(1,1-Dimethylethyl)-(S)-4-(3-nitroguanidino-2-methyl-propen-1,E-yl)-2,2-dimethyl-3-oxazolidinecarboxylate], the inhibition at 100 µM in test [1] (setting [4]) and in test [2] (setting [5]) was 0% throughout. Further, the pIC50 in test [1], in test [2] and in test [3] was under 4.00 throughout.
With `C/C(=C\[C@H](N)CO)CNC(=N)N[N+](=O)[O-]` [Example 15, N^G -Nitroguanidinyl-4(S)-Amino-2-methyl-pent-2,E-ene-5-ol], the inhibition at 100 µM stood at 66% in test [1] (setting [4]), 90% in test [2] (setting [5]) and 50% in test [3] (setting [6]). Besides, the values for the pIC50 in test [1], in test [2] and in test [3] were 4.40, 5.00 and 4.00, respectively.
For `CNC(=N)NC/C=C/[C@@H](CO)NC(=O)OC(C)(C)C` [Example 17, N^4, Boc-N^G -Methylguanidinyl-4(S)-Amino-pent-2,E-ene-5-ol], the inhibition at 100 µM was determined as 6% in test [1] (setting [4]) and 18% in test [2] (setting [5]). The pIC50 in test [1] and in test [2] was under 4.00 each time.
Take `CNC(=N)NC/C=C/[C@@H]1COC(C)(C)N1C(=O)OC(C)(C)C` [Example 18, 3-(1,1-Dimethylethyl)-(R)-4-(3-N^G -methylguanidinopropen-1,E-yl)-2,2-dimethyl-3-oxazolidinecarboxylate]: the figures for the inhibition at 100 µM in test [1] (setting [4]) and in test [2] (setting [5]) were 9% and 17%, respectively. Also, the pIC50 in test [1] and in test [2] was under 4.00 each time.
Turning to `CNC(=N)NC/C=C/[C@@H](N)CO` [Example 19, N-^G -Methylguanidinyl-4(R)-Amino-pent-2,E-ene,5-ol], the inhibition at 100 µM in test [1] (setting [4]) came out at 27%; in test [2] (setting [5]), 77%; in test [3] (setting [6]), 0%. Further, the values for the pIC50 in test [1], in test [2] and in test [3] were under 4.00, 4.46 and under 4.00, respectively.
In the case of `C/C(=C\[C@H]1COC(C)(C)N1C(=O)OC(C)(C)C)CNC(=N)N` [Example 20, 3-(1,1-Dimethylethyl)-(S)-4-(3-guanidino-2-methyl-propen-1,E-yl)-2,2-dimethyl-3-oxazolidinecarboxylate], the inhibition at 100 µM in test [1] (setting [4]) was determined as 45%; in test [2] (setting [5]) it was 27%. Moreover, the values for the pIC50 in test [1] and in test [2] were 4.00 and under 4.00, respectively.
Regarding `C/C(=C\[C@H](N)CO)CNC(=N)N` [Example 21, N^G -Guanidinyl-4(S)-Amino-2-methyl-pent-2,E-ene-5-ol], the results for the inhibition at 100 µM in test [1] (setting [4]), in test [2] (setting [5]) and in test [3] (setting [6]) were 94%, 86% and 50%, respectively. The results for the pIC50 in test [1], in test [2] and in test [3] were 4.52, 4.70 and 4.00, respectively.
Regarding `CC(C)(C)OC(=O)N1[C@@H](/C=C(/CNC(=N)N)Cc2ccccc2)COC1(C)C` [Example 24, 3-(1,1-Dimethylethyl)-(S)-4-(3,guanidino-2-benzyl-propen-1,E,yl)-2,2-dimethyl--oxazolidinecarboxylate], the inhibition at 100 µM in test [1] (setting [4]) came out at 20%; in test [2] (setting [5]) it was 35%. Moreover, the pIC50 in test [1] and in test [2] was under 4.00 each time.
